Consider one molecule from PMC9034499, “RORγt agonist enhances anti-PD-1 therapy by promoting monocyte-derived dendritic cells through CXCL10 in cancers” (Journal of Experimental & Clinical Cancer Research : CR, 2022).

The test system of one data set is mouse Th17 cells. Nature of the data set: IL-17A secretion by Th17 cells (ELISA). In kind it is cell-based. The following applies: ELISA of supernatant, 0 to 160 nM. How it is done: CD4^+ CD25^−CD62L^high cells were purified from C57BL/6 splenocytes using an EasySep Mouse Naïve CD4^+ T cell isolation kit from STEMCELL Technologies (Vancouver, Canada), and they were differentiated into Th17 cells (TGF-β, 2 ng/ml; IL-6, 20 ng/ml; Anti-IFN-γ, 10 μg/ml; Anti-IL-4, 10 μg/ml, BioLegend, San Diego, CA) in the presence of plate-bound anti-CD3 (5 μg/ml, BioLegend, San Diego, CA) and anti-CD28 (2 μg/ml, BioLegend, San Diego, CA). The cells were harvested and processed for cytokine analysis at the RNA or protein level using real-time qPCR, flow cytometry, and ELISA on day five. […]
The intracellular cytokines by TILs or in vitro differentiated T helper cells were quantified after restimulation with PMA plus ionomycin in the presence of GolgiStop for 6 h. The total RNA was isolated using the improved TRizol-based (Sigma, Darmstadt, Germany) method for qPCR analysis, and the mRNA expression was analyzed using a StepOnePlus (Life Technologies, Carlsbad, USA) real-time PCR instrument using housekeeping gene β-actin and Gapdh internal standards. qPCR was performed using A Power SYBR Green PCR Master Mix (Accurate Biology, Hunan, China) and two-cycle amplification for 40 cycles followed by the melting curve. […]
(In general: ELISA stands for enzyme-linked immunosorbent assay.)

Data set [1] concerns Th17 cells (CD4+ T cells). Nature of the data set: Murine Th17 differentiation, flow cytometry. The format is cell-based, mouse. The following applies: Th17, intracellular staining, same concentration. Here is the method:
CD4^+ CD25^−CD62L^high cells were purified from C57BL/6 splenocytes using an EasySep Mouse Naïve CD4^+ T cell isolation kit from STEMCELL Technologies (Vancouver, Canada), and they were differentiated into Th17 cells (TGF-β, 2 ng/ml; IL-6, 20 ng/ml; Anti-IFN-γ, 10 μg/ml; Anti-IL-4, 10 μg/ml, BioLegend, San Diego, CA) in the presence of plate-bound anti-CD3 (5 μg/ml, BioLegend, San Diego, CA) and anti-CD28 (2 μg/ml, BioLegend, San Diego, CA). The cells were harvested and processed for cytokine analysis at the RNA or protein level using real-time qPCR, flow cytometry, and ELISA on day five. Alternatively, splenocytes from OT-I mice were activated using OVA-derived peptides SIINFEKL (50 ng/ml, Sangon Biotech, Shanghai, China) and polarized to Tc17 cells using cytokine TGF-β (2 ng/ml, BioLegend, San Diego, CA) and IL-6 (20 ng/ml, BioLegend, San Diego, CA) for four or five days.
Cells were stained with fluorochrome-labeled anti-mouse Ab such as CD45, CD3, CD4, CD8, Foxp3, IFN-γ, IL-17A, CD11b, CD11c, pAKT, pSTAT3, CCR6, or MHCII. […] Cells were acquired using the FACS Aria II machine and analyzed using FlowJo software.
Background: In flow cytometry, cells or beads pass a laser one at a time.

Another data set has as its target T1, RORα (Homo sapiens, UniProt P35398).
T1 construct: expressed in transfected cells
T1 sequence (P35398 1-523): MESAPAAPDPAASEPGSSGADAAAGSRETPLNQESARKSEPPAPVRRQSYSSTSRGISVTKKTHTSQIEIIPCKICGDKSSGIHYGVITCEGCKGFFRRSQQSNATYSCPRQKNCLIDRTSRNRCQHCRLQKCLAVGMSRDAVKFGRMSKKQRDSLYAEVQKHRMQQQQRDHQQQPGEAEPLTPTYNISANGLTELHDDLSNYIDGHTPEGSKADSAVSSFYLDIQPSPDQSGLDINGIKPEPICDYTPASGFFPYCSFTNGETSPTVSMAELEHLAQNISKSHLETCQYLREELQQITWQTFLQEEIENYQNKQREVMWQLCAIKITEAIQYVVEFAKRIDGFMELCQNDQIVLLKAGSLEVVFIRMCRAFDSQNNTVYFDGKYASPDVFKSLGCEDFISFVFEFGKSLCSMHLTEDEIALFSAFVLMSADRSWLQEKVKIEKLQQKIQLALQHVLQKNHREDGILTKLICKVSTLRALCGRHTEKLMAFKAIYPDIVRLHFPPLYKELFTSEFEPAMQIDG
The data set can be described thus: RORα Gal4 reporter gene assay. In kind it is cell-based. A general note: In a reporter assay the amount or activity of a reporter protein is the signal.

A short description of data set [2]: Pharmacokinetics in C57BL/6 mice. In kind it is in vivo. The following applies: male, C57BL/6, mouse, plasma; for Tmax: n = 3. How it is done:
Male C57BL/6 mice were divided into two groups: 8-074 single intravenous injection group (2 mg/kg, n = 3) and 8-074 single gavage group (5 mg/kg, n = 3). After administration, blood samples were collected at 0.25, 0.5, 1, 2, 5, 7, and 24 h. Then the plasma samples were separated and stored at − 80 °C until the analysis. After being thawed at room temperature, 10 μL of plasma samples were added with 150 μL of precipitant containing the internal standard (verapamil 40 ng/mL) for the protein precipitation. The supernatant was mixed with a suitable volume of water and then analyzed using liquid chromatography in tandem with mass spectrometry (LC-MS/MS). The concentration of 8–074 in the plasma of the C57 mice after administration was determined using the inter-run standard curve samples (linear range of 3–10,000 ng/mL) and quality control samples.

Molecules are shown by their SMILES. Bounds are passed on as bounds.

As for `CCS(=O)(=O)c1ccc(CC(=O)Nc2ccc(-c3ccc(CC(C)C)c(C#N)c3)c(C(F)(F)F)c2)cc1` [8-074], the values for the concentration for a half-maximal effect (EC50) with mouse Th17 cells and at RORα were 22.8 nM and more than 10000 nM, respectively. In addition, the “percentage of CD4+ T cells that express IL-17A” value in data set [1] came to 24.0%. In addition, the MRT inf is 3.84 ± 0.33 h in data set [2] (iv, 2 mg/kg, i.v. 2 mg/kg, first MRTINF line (r8)); 2.97 ± 0.25 h in data set [2] (iv, 2 mg/kg, i.v. 2 mg/kg, second MRTINF line (r9)); 4.49 ± 1.2 h in data set [2] (po, 5 mg/kg, i.g. 5 mg/kg, first MRTINF line (r8)); 3.34 ± 0.52 h in data set [2] (po, 5 mg/kg, i.g. 5 mg/kg, second MRTINF line (r9)). The AUC(0-inf) in data set [2] (iv, i.v. 2 mg/kg) was 20600 ng·h/mL; in data set [2] (po, i.g. 5 mg/kg) it was 19800 ng·h/mL. Also, the AUC(0-t) in data set [2] (iv, i.v. 2 mg/kg) is 20500 ng·h/mL; in data set [2] (po, i.g. 5 mg/kg), 19700 ng·h/mL. The Cmax in data set [2] (iv, i.v. 2 mg/kg) is 4800 ± 1200 ng/mL; in data set [2] (po, i.g. 5 mg/kg) it was 3020 ± 110 ng/mL. Also, in data set [2] (iv, i.v. 2 mg/kg), the clearance is 1.63 ± 0.11 mL/min/kg. Moreover, the Tmax amounted to 0.25 h in data set [2] (iv, i.v. 2 mg/kg) and 1.67 ± 0.58 h in data set [2] (po, i.g. 5 mg/kg). Also, the bioavailability in data set [2] (oral, i.g. 5 mg/kg vs i.v. 2 mg/kg) was determined as 38%. This molecule also had a half-life in data set [2] (po, single intragastric administration of 5 mg/kg) of 3.34 ± 0.52 h. The AUC in data set [2] (route not given) stood at 20600 ± 1500 ng·h/mL.

As a reminder, the EC50 is the concentration at which the effect is half-maximal. A low value points to higher potency in that assay. As a reminder, the MRT inf is the average time that molecules of a dose stay in the body. In general, AUC(0-inf) refers to the area under the concentration-time curve extrapolated to infinity. What is called AUC(0-t) is exposure summed from dosing to a finite time, without extrapolation to infinity. One may read the Cmax as the maximum level reached in the sampled fluid or tissue. As a reminder, the clearance is a measure of how efficiently the substance is removed, as volume per time. A low value points to inefficient removal. What is called Tmax is the time from dosing to the highest level. What is called bioavailability is dose-corrected exposure relative to a reference, in per cent. Low readings indicate poor availability, high ones good availability. In general, half-life refers to the time in which the quantity being followed falls by half. Lower therefore signals rapid decline. The term AUC denotes the area under the concentration-time curve, a measure of exposure. Read a low AUC as less exposure.
